This is an account of results in article PMC4399838, “Antipsychotic-Like Effect of the Muscarinic Acetylcholine Receptor Agonist BuTAC in Non-Human Primates” (PLoS ONE, 2015).

In data set [1] the target is T1, human M4 muscarinic receptor (Homo sapiens, UniProt P08173).
T1 construct: purchased PerkinElmer Life and Analytical Sciences, Boston, MA
T1 sequence (P08173 1-479): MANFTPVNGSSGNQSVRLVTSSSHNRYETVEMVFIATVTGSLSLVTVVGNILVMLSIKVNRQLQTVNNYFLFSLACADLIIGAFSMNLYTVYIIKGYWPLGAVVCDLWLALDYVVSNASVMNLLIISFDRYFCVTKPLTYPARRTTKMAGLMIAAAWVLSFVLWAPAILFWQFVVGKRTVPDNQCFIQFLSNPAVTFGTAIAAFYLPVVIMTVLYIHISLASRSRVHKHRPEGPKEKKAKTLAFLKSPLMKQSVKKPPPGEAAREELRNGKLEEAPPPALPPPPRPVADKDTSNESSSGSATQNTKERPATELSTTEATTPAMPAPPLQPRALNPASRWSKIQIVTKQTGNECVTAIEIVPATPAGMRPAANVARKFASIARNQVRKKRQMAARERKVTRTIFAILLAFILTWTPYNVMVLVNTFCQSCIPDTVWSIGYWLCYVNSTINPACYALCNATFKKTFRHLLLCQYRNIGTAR
Also on record: method as in Watt et al. 2013 [10]. To be noted: ref Watt et al. 2013 [10], cited from earlier work.

Data set [2] relates to antipsychotic-naïve Cebus Apella monkeys. As to the kind of experiment: Side effects of BuTAC alone or with d-amphetamine. The class given is in vivo. Here is the method: Seven male Cebus Apella monkeys were used for evaluation the anti-amphetamine effect and the side effect profile of BuTAC. These monkeys were never before administered antipsychotics and had never experienced EPS, but had previously been administered amphetamine. For further evaluation of the EPS potential of BuTAC, the compound was tested in four male and female monkeys, all sensitized to drug-induced EPS by earlier chronic treatment with classical antipsychotic drugs.
All monkeys received all treatments with at least one week between tests and thus served as their own control. To avoid extended physical contact with the experimenter, the cages were reduced in sized by moving the back wall of the cage closer to the front wall to lightly immobilize the monkey while injecting the test substance in the thigh. This was done at 9 am at test days. After the appropriate pre-treatment time, the monkeys were videotaped in their cages at predefined time points after drug injection.
The rated primate behaviours and symptoms were the following: unrest, stereotypy, arousal, sedation and bradykinesia (Table 1). All monkeys were videotaped in 90-sec. sessions at specific time points throughout the test sessions. The videotapes were rated for amphetamine-induced behaviours and EPS by two experienced raters blinded to the treatment of the animal by means of a rating scale adapted from Peacock et al. and previously described by Andersen et al. (Table 1). In case of any discrepancy between the two ratings, the recording in question was re-evaluated and a rating agreed upon. The monkeys were videotaped at t = 30, 60, 90, 135, 150, 165, 180, 240, 300 min after BuTAC (or vehicle) administration. For the combination studies, d-amphetamine was injected at t = 120 min. Oral dyskinesia was measured in counts per 90 sec. The severity of other behaviours and symptoms were rated on a scale ranging from 0 (not present) to 6 (extreme presence).
For evaluation of anti-amphetamine effects, BuTAC was tested in doses of 0.001, 0.003, 0.01 mg/kg in combination with 0.5 mg/kg of d-amphetamine. BuTAC or peanut oil vehicle was injected s.c. at approximately 9 a.m. Pre-treatment time before s.c. injection of amphetamine was 120 min. For evaluation of side effects, BuTAC was tested alone at doses of 0.001, 0.003 and 0.01 mg/kg in antipsychotic-naïve monkeys and at doses of 0.003 and 0.01 mg/kg in monkeys sensitized to extrapyramidal side effects (EPS) by earlier long-term treatment with first generation antipsychotics. […] None of the animals were sacrificed.
Data from the experiments where BuTAC was administered alone collected at t = 60, 180, 300 min are presented. For the d-amphetamine / BuTAC study, data collected at t(amp) = 60, 120 and 180 min (t = 180, 240, 300 min) are reported. Data were analyzed for overall treatment effects at each time point by means of the non-parametric Friedman’s test for repeated measures. The Student Newman-Keuls comparison procedure was used to analyze for specific dose effects. For all tests, the accepted level of significance was p<0.05.

For a further data set, the target named is T2, M5AChR (Homo sapiens, UniProt P08912).
T2 sequence (P08912 1-532): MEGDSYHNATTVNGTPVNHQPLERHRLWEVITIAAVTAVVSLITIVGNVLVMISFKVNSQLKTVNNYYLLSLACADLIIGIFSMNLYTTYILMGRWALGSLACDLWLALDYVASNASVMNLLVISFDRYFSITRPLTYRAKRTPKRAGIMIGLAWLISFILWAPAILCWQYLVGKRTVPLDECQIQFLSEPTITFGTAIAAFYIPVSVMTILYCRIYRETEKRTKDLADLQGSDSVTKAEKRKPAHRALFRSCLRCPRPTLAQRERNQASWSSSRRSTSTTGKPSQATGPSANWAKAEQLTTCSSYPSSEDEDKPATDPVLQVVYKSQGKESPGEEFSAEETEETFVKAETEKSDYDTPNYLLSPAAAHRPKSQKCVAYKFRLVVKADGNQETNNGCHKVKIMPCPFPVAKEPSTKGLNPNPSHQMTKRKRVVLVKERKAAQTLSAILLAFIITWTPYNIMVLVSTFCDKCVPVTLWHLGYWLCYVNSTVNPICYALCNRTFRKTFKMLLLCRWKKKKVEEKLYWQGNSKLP
The data set is described as follows: Competitive radioligand binding.

[3] abbreviates: BuTAC 0.001 mg/kg / d-amphetamine 0.5 mg/kg.
Where [4] appears, read: BuTAC alone 0.001, 0.003, 0.01 mg/kg.

The structures appear in SMILES notation.

As usually defined, the % Inhibition is the change of the read-out against control, counted positive when it falls. Regarding `CCCCSc1nsnc1[C@H]1CN2CCC[C@H]1C2` [BuTAC, (5R,6R)-6-(3-butylthio-1,2,5-thiadiazol-4-yl)-1-azabicyclo[3.2.1]octane], the “Rel pEC50” value in data set [1] (agonist mode, negative log-transformed) is 10.27 ± 10.31 M. In addition, in data set [1] (agonist mode), the “% Emax” value was 35.53 ± 11.51%. In addition, the “Rel pIC50” value in data set [1] (antagonist mode, negative log-transformed) was 9.19 ± 9.13 M. Moreover, the “% Inhibition” value in data set [1] (antagonist mode) was 57.55 ± 3.22%. The “Emetic events (vomiting) (monkeys affected)” value in data set [2] (setting [3]) stood at 0. The “Sedation 2 ≤ X ≤ 5 (monkeys affected)” value in data set [2] (setting [3]), in data set [2] (BuTAC 0.001 mg/kg / vehicle), in data set [2] (BuTAC 0.003 mg/kg / d-amphetamine 0.5 mg/kg) and in data set [2] (BuTAC 0.01 mg/kg / d-amphetamine 0.5 mg/kg) was 0 throughout. The “Salivation (monkeys affected)” value in data set [2] (BuTAC 0.001 mg/kg / vehicle) and in data set [2] (BuTAC 0.003 mg/kg / vehicle) was 0 in each case. Also, the “Muscular relaxation (monkeys affected)” value is listed as “all monkeys” in data set [2] (BuTAC 0.01 mg/kg (footnote of Table 3)); “one” in data set [2] (BuTAC 0.001 and 0.003 mg/kg (footnote of Table 3)); “Six” in data set [2] (BuTAC 0.003 and 0.01 mg/kg combined with d-amphetamine). For the same compound, in data set [2] (BuTAC alone 0.01 mg/kg, after 180 and 300 min, p<0.05), the “Unrest (rating 0–6)” value is “decrease in unrest”. Besides, the “Sedation (rating 0–6)” value in data set [2] (BuTAC alone 0.01 mg/kg, all three test times, p<0.05 relative to vehicle) was “produced sedation”. In addition, the Arousal result in data set [2] (setting [4]) is “no significant effect”. Further, the “Stereotypies, oral dyskinesia, bradykinesia or dystonia” value in data set [2] (setting [4]) is on record as “not observed”. In addition, the “Sedation, oral dyskinesia, bradykinesia or dystonia” value in data set [2] (BuTAC and d-amphetamine) is reported as “not observed”. The EPS entry in data set [2] (EPS naive monkeys) is listed as “did not induce EPS”.
As usually defined, the Ki is the dissociation constant of the complex between target and ligand, obtained from inhibition or displacement. Lower therefore signals higher affinity. `CCCSc1nsnc1[C@H]1CN2CCC[C@H]1C2` [PTAC, (5R,6R) 6-(3-propylthio-1,2,5-thiadiazol-4-yl)-1-azabicyclo-[3.2.1]-octane] showed a Ki on M5AChR of 0.372 nM.
